The source of these data is paper PMC11975549, “Development of Potent Type V MAPK Inhibitors: Design, Synthesis, and Biological Evaluation of Benzothiazole Derivatives Targeting p38α MAPK in Breast Cancer Cells” (Archiv Der Pharmazie, 2025).

For experiment [1], the system named is MCF7 cells. The experiment can be described thus: MTT antiproliferative assay, MCF7. The note with it: for IC50: MTT, 24 h incubation; for Selectivity MCF7: Selectivity index = L929 IC50 / MCF7 IC50 (24 h). The experiment is classed as cell-based, human. Here is the method: (§1) Cell culture experiments were performed to assess the antiproliferative efficacy of the synthesized benzothiazole compounds on the MCF7 and MDA‐MB‐231 cell lines. The anticancer activity of the compounds were compared with the L929 healthy cell line as a control. Doxorubicin and cisplatin, the anticancer agents, were employed as positive controls.
(§2) Human epithelial breast adenocarcinoma (MDA‐MB‐231) (ATCC® HTB‐26™), human epithelial breast adenocarcinoma (MCF7) (ATCC® HTB‐22™), and healthy mouse fibroblast (L929) (ATCC® CRL‐10317™) cells were obtained commercially from ATCC.
(§3) MDA‐MB‐231, MCF7, and L929 cells were seeded in 25 cm² flasks. DMEM medium containing 10% FBS, 1% Penicillin‐Streptomycin, L‐Glutamine, and NaHCO₃ was used as the cell culture medium. The cells were incubated and propagated at 37°C in an environment containing 5% CO₂ and 95% humidity. When the cells reached 80%–90% confluency, they were passaged to different media. During passaging, DMEM was first withdrawn, and the cells were washed with PBS to remove FBS from the medium. Then, Trypsin‐EDTA solution was added to the flask to detach the cells, and the flask was kept in a CO₂ incubator for approximately 1 min. To stop the activity of Trypsin‐EDTA medium containing FBS was added to the flask. The cells were collected into a Falcon tube and centrifuged at 800 rpm for 5 min at room temperature. The supernatant was discarded, and the cell pellet was resuspended in the medium and seeded on cell culture plates according to the experimental protocol.
(§4) A total of 2 mg of each compound was dissolved in an appropriate amount of dimethyl sulfoxide (DMSO) to prepare 10 mM stock solutions. These stock solutions were then diluted to create 100 μM intermediate stocks and stored at −80°C. Commercially purchased cisplatin and doxorubicin HCl (Sigma, St. Louis, MO) were dissolved in DMSO following the manufacturer's protocol to create 20 mM stock solutions. These standard drug molecules were diluted from the stock solution, divided into 100 μM aliquots, and stored at –80°C until use.
(§5) MTT analysis was performed to evaluate the in vitro cytotoxicity of the synthesized compounds against different cancer cell lines. Cells used in the cytotoxicity experiments were cultured in DMEM medium supplemented with 10% FBS. Cells suspended in the medium (2 × 10⁴ cells/mL) were seeded into 96‐well culture plates and incubated at 37°C in a 5% CO₂ incubator. After 12 h, compounds were added at different doses (2 µL) to cells (2 × 10⁴) in the 96‐well plates and incubated at 37°C for 24 h.
(§6) The incubated cells were then treated with 20 µL of MTT solution and incubated at 37°C for 4 h. The supernatant was carefully removed from each well, and 100 µL of DMSO was added to each well to dissolve the formazan crystals formed by the cellular reduction of MTT. The absorbance was measured at 570 nm using an ELISA reader. […] At the end of the experiment, the device calculated the IC50 value for each well, and the average values were recorded. Each experiment was performed in at least three replicates.
On the technique in general: Formazan colour is commonly taken as a measure of viable cells.

Experiment [2] concerns MDA‐MB‐231 cells. Put plainly: MTT antiproliferative assay, MDA-MB-231. It is filed as cell-based, human. Conditions: for IC50: MTT, 24 h incubation; for Selectivity MDA‐MB‐231: Selectivity index = L929 IC50 / MDA‐MB‐231 IC50 (24 h). As to the method:
as §1, §2, §3, §4, §5, §6

Experiment [3] deals with L929 cells. The experiment can be described thus: MTT cytotoxicity assay, L929 healthy cells. It is filed as cell-based. The note with it: healthy mouse fibroblast. As to the method: as §1, §2, §3, §4, §5, §6
Experiment [4] relates to p38 MAPKα. Put plainly: p38 MAPK alpha ELISA, total level in treated MCF7 cells normalised to total protein (BCA). The experiment is classed as cell-based, human. The note with it: MCF7 cells exposed to compound. The text has this:
To account for variations in protein quantities among the cells. The total protein concentrations in cells subjected to the drugs were quantified. The p38 MAPKα levels were adjusted by dividing by the protein levels, yielding results represented as ng/μg protein (Table 3).
A bicinchoninic acid (BCA) protein assay kit (catalog no. 23227) was obtained from Thermo‐Fisher Scientific (IL, USA) and used to detect total protein by the BCA assay. In this assay, the reaction between BCA, Cu²⁺ ions, and Cu⁺ ions form a purple complex in alkaline conditions. The absorbance of this complex was measured at 562 nm, and the results were expressed in mg/mL.
The p38 MAPK alpha ELISA Kit (ab221012; Abcam, Cambridge, MA) was used to measure the levels of […] in cell lysates according to the manufacturer's instructions. The SimpleStep Enzyme‐Linked Immunosorbent Assay (ELISA) kit was designed to assess total p38 MAPKα protein semi‐quantitatively. The SimpleStep ELISA uses a reporter‐conjugated detection antibody, and an affinity‐tag labeled capture antibody to immunocapture the sample analyte in solution. An anti‐tag antibody coating the well immobilizes the entire complex (capture antibody, analyte, and detection antibody).
Samples or controls were added to the wells, followed by the Antibody Cocktail to complete the test. After incubation, the wells were washed to remove unbound material. […] The levels of MAPK were normalized to total protein content.
For orientation: ELISA stands for enzyme-linked immunosorbent assay.

Each structure is given as a SMILES string. “And” between values parts separate entries of the source, which are not always exact repeats. Equal values may be shown once.

A word on the IC50: it is the concentration that inhibits the measured activity by half. A lower IC50 goes with greater potency.

`COc1ccc(C(=O)NCc2nc3ccccc3s2)cc1` [Compound 17, N‐(Benzo[d]thiazol‐2‐ylmethyl)‐4‐methoxybenzamide]: the IC50 was 11.1 ± 0.23 µM in experiment [1] (Homo sapiens, MCF7); 16.7 ± 0.36 µM in experiment [2] (Homo sapiens, MDA-MB-231); 25.09 ± 0.18 µM in experiment [3] (L929, 24 h incubation). Besides, in experiment [1], the “Selectivity MCF7” value was 2.271. Also, the “Selectivity MDA‐MB‐231” value in experiment [2] is listed as 1.499. For the same compound, in experiment [4], the “Total p38α MAPK levels” value is 6.411 ± 1.604 ng/μg protein.
Consider `O=C(NCc1nc2ccccc2s1)c1ccco1` [Compound 15, N‐(Benzo[d]thiazol‐2‐ylmethyl) furan‐2‐carboxamide], for which the half-maximal inhibitory concentration (IC50) was 8.83 ± 0.43 µM in experiment [1] (Homo sapiens, MCF7); 11.78 ± 0.11 µM in experiment [2] (Homo sapiens, MDA-MB-231); 26.8 ± 0.84 µM in experiment [3] (L929, 24 h incubation). Moreover, the “Selectivity MCF7” value in experiment [1] is given as 3.031. In experiment [2], the “Selectivity MDA‐MB‐231” value worked out at 2.272. Also, in experiment [4], the “Total p38α MAPK levels” value is 0.155 ng/μg protein and 0.155 ± 0.045 ng/μg protein.
Take `O=C(Nc1nc2ccccc2s1)c1ccc(F)cc1` [Compound 2, N‐(Benzo[d]thiazol‐2‐yl)‐4‐fluorobenzamide]: the IC50 is 11.2 ± 0.49 µM in experiment [1] (Homo sapiens, MCF7); 17 ± 0.67 µM in experiment [2] (Homo sapiens, MDA-MB-231); 21.02 ± 0.21 µM in experiment [3] (L929, 24 h incubation). Further, the “Selectivity MCF7” value in experiment [1] is listed as 1.884. Further, the “Selectivity MDA‐MB‐231” value in experiment [2] is 1.239. Besides, the “Total p38α MAPK levels” value in experiment [4] stood at 3.879 ± 0.868 ng/μg protein.
For the compound `O=C(Nc1nc2ccccc2s1)c1cccs1` [Compound 3, N‐(Benzo[d]thiazol‐2‐yl) thiophene‐2‐carboxamide], the IC50 in experiment [1] (Homo sapiens, MCF7) was 16 ± 0.46 µM; in experiment [2] (Homo sapiens, MDA-MB-231) it was 15 ± 0.57 µM; in experiment [3] (L929, 24 h incubation), 35.2 ± 0.95 µM. In addition, the “Selectivity MCF7” value in experiment [1] is 2.209. In addition, the “Selectivity MDA‐MB‐231” value in experiment [2] is 2.345. Besides, the “Total p38α MAPK levels” value in experiment [4] was determined as 0.43 ± 0.005 ng/μg protein.
For `O=C(Nc1nc2ccccc2s1)c1ccco1` [Compound 4, N‐(Benzo[d]thiazol‐2‐yl) furan‐2‐carboxamide], the IC50 in experiment [1] (Homo sapiens, MCF7) turned out to be 11.08 ± 0.08 µM; in experiment [2] (Homo sapiens, MDA-MB-231), 19.9 ± 0.36 µM; in experiment [3] (L929, 24 h incubation), 26.03 ± 0.13 µM. For the same compound, in experiment [1], the “Selectivity MCF7” value is listed as 2.349. Further, in experiment [2], the “Selectivity MDA‐MB‐231” value worked out at 1.305. Besides, the “Total p38α MAPK levels” value in experiment [4] was 8.529 ± 0.9 ng/μg protein.
For `O=C(Nc1nc2ccccc2s1)c1ccc(Cl)cc1` [Compound 9, N‐(Benzo[d]thiazol‐2‐yl)‐4‐chlorobenzamide], the concentration for half-maximal inhibition (IC50) in experiment [1] (Homo sapiens, MCF7) came to 3.49 ± 0.32 µM; in experiment [2] (Homo sapiens, MDA-MB-231), 6.02 ± 0.18 µM; in experiment [3] (L929, 24 h incubation), 6.43 ± 0.05 µM. Further, in experiment [1], the “Selectivity MCF7” value is on record as 1.842. For the same compound, the “Selectivity MDA‐MB‐231” value in experiment [2] is listed as 1.068. Further, in experiment [4], the “Total p38α MAPK levels” value turned out to be 0.166 ± 0.015 ng/μg protein.
Turning to `O=C(NCc1nc2ccccc2s1)c1ccccc1` [Compound 10, N‐(Benzo[d]thiazol‐2‐ylmethyl) benzamide], the IC50 turned out to be 5.64 ± 0.34 µM in experiment [1] (Homo sapiens, MCF7); 13.5 ± 0.54 µM in experiment [2] (Homo sapiens, MDA-MB-231); 40.82 ± 0.12 µM in experiment [3] (L929, 24 h incubation). Also, in experiment [1], the “Selectivity MCF7” value came to 7.238. In experiment [2], the “Selectivity MDA‐MB‐231” value is listed as 3.019. In addition, in experiment [4], the “Total p38α MAPK levels” value came out at 0.535 ± 0.079 ng/μg protein.
For `O=C(Cc1ccc(F)cc1)Nc1nc2ccccc2s1` [Compound 22, N‐(Benzo[d]thiazol‐2‐yl)‐2‐(4‐fluorophenyl) acetamide], in experiment [1], 5.05 ± 0.01 µM corresponded to half-maximal inhibition (IC50) and the “Selectivity MCF7” value came out at 41.697. Further, in experiment [2], the half-inhibitory concentration (IC50) was determined as 3.8 ± 0.28 µM and the “Selectivity MDA‐MB‐231” value is on record as 55.413. This compound gave an IC50 in experiment [3] (24 h incubation) of 210.6 ± 1.67 µM. Further, the “Total p38α MAPK levels” value in experiment [4] is recorded as 3.952 ± 0.311 ng/μg protein.
Regarding `COc1cccc(CC(=O)Nc2nc3ccccc3s2)c1` [Compound 21, N‐(Benzo[d]thiazol‐2‐yl)‐2‐(3‐methoxyphenyl) acetamide], the half-maximal inhibitory concentration (IC50) amounted to 7.09 ± 0.02 µM in experiment [1], 6.42 ± 0.07 µM in experiment [2] and 66.3 ± 1.82 µM in experiment [3] (24 h incubation). Moreover, the “Selectivity MCF7” value in experiment [1] worked out at 9.354. The “Selectivity MDA‐MB‐231” value in experiment [2] is 10.330. Besides, in experiment [4], the “Total p38α MAPK levels” value came to 1.333 ± 0.007 ng/μg protein.
